In ChEMBL document CHEMBL1124450, “Identification of structural requirements for analogues of atrial natriuretic peptide (ANP) to discriminate between ANP receptor subtypes” (J Med Chem, 1989) one finds IC50 and Ratio data, which are given here for seven compounds.

Structures are written as SMILES. Residues, ends and D or L forms follow the SMILES beside them.

Assay [1] addresses T1, Atrial natriuretic peptide receptor (Homo sapiens, UniProt P20594+P16066+P17342).
T1 sequence (P20594 whole entry): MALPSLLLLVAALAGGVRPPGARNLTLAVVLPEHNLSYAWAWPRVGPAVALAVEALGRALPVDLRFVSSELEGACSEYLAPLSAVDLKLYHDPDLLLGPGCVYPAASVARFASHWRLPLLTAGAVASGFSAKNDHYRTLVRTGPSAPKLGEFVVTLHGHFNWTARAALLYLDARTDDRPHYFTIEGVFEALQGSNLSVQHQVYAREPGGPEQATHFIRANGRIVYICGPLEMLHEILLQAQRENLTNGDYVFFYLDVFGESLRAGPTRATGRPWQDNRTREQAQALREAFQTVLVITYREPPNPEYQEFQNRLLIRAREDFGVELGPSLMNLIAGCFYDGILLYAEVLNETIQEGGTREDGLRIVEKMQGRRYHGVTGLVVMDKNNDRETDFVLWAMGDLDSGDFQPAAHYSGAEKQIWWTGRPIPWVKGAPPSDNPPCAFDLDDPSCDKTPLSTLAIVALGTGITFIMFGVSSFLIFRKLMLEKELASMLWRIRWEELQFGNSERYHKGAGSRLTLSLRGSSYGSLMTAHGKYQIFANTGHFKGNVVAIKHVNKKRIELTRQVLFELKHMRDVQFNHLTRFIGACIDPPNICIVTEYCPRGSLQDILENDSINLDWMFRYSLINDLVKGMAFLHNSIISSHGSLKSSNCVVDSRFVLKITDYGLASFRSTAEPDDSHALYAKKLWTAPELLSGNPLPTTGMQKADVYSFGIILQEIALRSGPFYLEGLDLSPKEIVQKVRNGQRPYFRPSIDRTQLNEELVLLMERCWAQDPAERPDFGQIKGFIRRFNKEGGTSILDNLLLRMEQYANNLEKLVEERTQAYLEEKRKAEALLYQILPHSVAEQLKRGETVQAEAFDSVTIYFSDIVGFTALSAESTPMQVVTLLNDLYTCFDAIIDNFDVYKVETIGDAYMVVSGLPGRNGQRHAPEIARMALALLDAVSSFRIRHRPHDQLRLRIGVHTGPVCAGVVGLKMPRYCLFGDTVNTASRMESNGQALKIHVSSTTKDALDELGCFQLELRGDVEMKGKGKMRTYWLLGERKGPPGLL
T1 sequence (P16066 whole entry): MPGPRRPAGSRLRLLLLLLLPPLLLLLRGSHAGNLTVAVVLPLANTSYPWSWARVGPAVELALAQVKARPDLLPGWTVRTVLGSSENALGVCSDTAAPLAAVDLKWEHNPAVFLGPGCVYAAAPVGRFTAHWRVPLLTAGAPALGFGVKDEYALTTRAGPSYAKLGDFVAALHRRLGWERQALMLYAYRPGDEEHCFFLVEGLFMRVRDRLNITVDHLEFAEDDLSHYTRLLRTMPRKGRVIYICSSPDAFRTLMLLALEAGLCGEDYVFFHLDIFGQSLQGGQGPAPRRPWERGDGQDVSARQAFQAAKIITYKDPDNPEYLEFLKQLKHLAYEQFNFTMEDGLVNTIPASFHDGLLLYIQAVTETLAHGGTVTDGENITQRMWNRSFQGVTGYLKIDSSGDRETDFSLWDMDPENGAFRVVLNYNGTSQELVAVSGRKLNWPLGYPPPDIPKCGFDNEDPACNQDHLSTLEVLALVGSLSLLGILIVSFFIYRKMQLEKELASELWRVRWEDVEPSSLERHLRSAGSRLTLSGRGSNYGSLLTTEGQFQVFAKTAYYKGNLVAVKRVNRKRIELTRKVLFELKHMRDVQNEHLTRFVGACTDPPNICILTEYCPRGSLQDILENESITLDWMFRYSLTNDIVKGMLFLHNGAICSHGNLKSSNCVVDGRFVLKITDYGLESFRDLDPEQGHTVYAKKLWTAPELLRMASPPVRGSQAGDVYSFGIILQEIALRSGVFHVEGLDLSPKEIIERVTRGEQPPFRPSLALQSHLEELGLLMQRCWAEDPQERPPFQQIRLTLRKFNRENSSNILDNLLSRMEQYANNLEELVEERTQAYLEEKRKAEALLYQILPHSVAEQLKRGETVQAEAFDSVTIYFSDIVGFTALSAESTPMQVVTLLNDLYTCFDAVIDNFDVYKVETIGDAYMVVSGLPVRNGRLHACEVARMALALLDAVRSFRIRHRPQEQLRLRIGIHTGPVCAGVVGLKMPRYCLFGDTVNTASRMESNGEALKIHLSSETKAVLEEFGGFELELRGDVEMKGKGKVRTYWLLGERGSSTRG
T1 sequence (P17342 whole entry): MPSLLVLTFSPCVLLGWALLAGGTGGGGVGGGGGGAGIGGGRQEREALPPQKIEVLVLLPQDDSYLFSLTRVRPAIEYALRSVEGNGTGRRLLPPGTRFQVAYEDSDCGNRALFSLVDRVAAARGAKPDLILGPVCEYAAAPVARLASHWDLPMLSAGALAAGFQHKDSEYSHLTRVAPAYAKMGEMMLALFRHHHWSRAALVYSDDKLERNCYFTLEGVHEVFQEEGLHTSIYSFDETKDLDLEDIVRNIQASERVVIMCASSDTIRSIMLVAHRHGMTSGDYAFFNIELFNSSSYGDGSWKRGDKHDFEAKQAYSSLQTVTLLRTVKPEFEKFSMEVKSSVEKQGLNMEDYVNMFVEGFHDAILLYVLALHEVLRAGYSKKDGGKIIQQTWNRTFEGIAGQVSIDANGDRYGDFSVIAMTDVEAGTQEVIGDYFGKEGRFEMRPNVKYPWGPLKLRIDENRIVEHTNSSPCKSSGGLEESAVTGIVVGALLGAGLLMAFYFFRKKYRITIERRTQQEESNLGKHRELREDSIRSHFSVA
The assay can be described thus: Inhibitory activity against guanylate cyclase coupled receptor binding site in rabbit lung by using [125I]-ANP-(103-126). The format is protein assay, Oryctolagus cuniculus. Particulars: target entry is the homologue from another species.

Assay [2] is described as follows: Inhibitory activity against non-guanylate cyclase receptor binding site in rabbit lung by using [125I]-ANP-(103-126). On the set-up: species or system Oryctolagus cuniculus.
The nature of assay [3]: Ratio of IC50 of guanylate cyclase coupled receptor binding and non-guanylate cyclase coupled binding.

As to `CC[C@H](C)[C@H](NC(=O)[C@H](CCCN=C(N)N)NC(=O)[C@H](CC(=O)O)NC(=O)[C@@H](NC(=O)[C@H](CCCN=C(N)N)NC(=O)CNC(=O)CNC(=O)[C@H](Cc1ccccc1)NC(=O)[C@@H](N)CO)[C@@H](C)CC)C(=O)NCC(=O)N[C@@H](C)C(=O)N[C@@H](CCC(N)=O)C(=O)N[C@@H](CO)C(=O)NCC(=O)N[C@@H](CC(C)C)C(=O)NCC(=O)N[C@@H](CC(N)=O)C(=O)N[C@@H](CO)C(=O)N[C@@H](Cc1ccccc1)C(=O)N[C@@H](CCCN=C(N)N)C(=O)N[C@@H](Cc1ccc(O)cc1)C(=O)O` (H-SFGGRIDRIGAQSGLGNSFRY-OH), the IC50 in assay [1] was more than 100 nM; in assay [2], 0.35 nM. For the same compound, the Ratio in assay [3] is more than 285.

Regarding `CC[C@H](C)[C@@H]1NC(=O)[C@H](CCCN=C(N)N)NC(=O)[C@H](CC(=O)O)NC(=O)[C@H]([C@@H](C)CC)NC(=O)[C@H](CCCN=C(N)N)NC(=O)CNC(=O)CNC(=O)[C@H](Cc2ccccc2)NC(=O)[C@@H](NC(=O)[C@H](CO)NC(=O)[C@@H](N)CO)CSSC[C@@H](C(=O)N[C@@H](CC(N)=O)C(=O)N[C@@H](CO)C(=O)O)NC(=O)CNC(=O)[C@H](CC(C)C)NC(=O)CNC(=O)[C@H](CO)NC(=O)[C@H](CCC(N)=O)NC(=O)[C@H](C)NC(=O)CNC1=O` (HELM PEPTIDE1{S.S.C.F.G.G.R.I.D.R.I.G.A.Q.S.G.L.G.C.N.S}$PEPTIDE1,PEPTIDE1,3:R3-19:R3$$$V2.0), the results for the 50% inhibitory concentration (IC50) in assay [1] and in assay [2] were 36 nM and 0.78 nM, respectively. The Ratio in assay [3] was determined as 46.

Take `CC[C@H](C)[C@H](NC(=O)[C@H](CCCN=C(N)N)NC(=O)[C@H](CC(=O)O)NC(=O)[C@@H](NC(=O)[C@H](CCCN=C(N)N)NC(=O)CNC(C)=O)[C@@H](C)CC)C(=O)NCC(N)=O` [GRIDRIG] (Ac-GRIDRIG-NH2): the IC50 in assay [1] was more than 100 nM; in assay [2] it was 65 nM. The Ratio in assay [3] was more than 1.5.

Take `CC(C)C[C@H](NC(=O)[C@@H](N)CO)C(=O)N[C@@H](CCCN=C(N)N)C(=O)N[C@@H](CCCN=C(N)N)C(=O)N[C@@H](CO)C(=O)N[C@@H](CO)C(=O)N[C@@H](CS)C(=O)N[C@@H](Cc1ccccc1)C(=O)NCC(=O)NCC(=O)N[C@@H](CCCN=C(N)N)C(=O)O` (H-SLRRSSCFGGR-OH): the IC50 in assay [1] and in assay [2] was more than 100 nM each time.

For the compound `CC[C@H](C)[C@@H]1NC(=O)[C@H](CCCN=C(N)N)NC(=O)[C@H](CC(=O)O)NC(=O)[C@H]([C@@H](C)CC)NC(=O)[C@H](CCCN=C(N)N)NC(=O)CNC(=O)[C@@H](NC(=O)[C@H](CO)NC(=O)[C@@H](N)CO)CSSC[C@H](C(=O)N[C@@H](CC(N)=O)C(=O)N[C@@H](CO)C(=O)N[C@@H](Cc2ccccc2)C(=O)N[C@@H](CCCN=C(N)N)C(N)=O)NC(=O)CNC(=O)[C@H](CC(C)C)NC(=O)CNC(=O)[C@H](CO)NC(=O)CNC1=O`, the IC50 is more than 100 nM in assay [1] and 0.1 nM in assay [2]. The Ratio in assay [3] is more than 1000.

Turning to `CC[C@H](C)[C@@H]1NC(=O)[C@H](CCCN=C(N)N)NC(=O)[C@H](CC(=O)O)NC(=O)[C@H]([C@@H](C)CC)NC(=O)[C@H](CCCN=C(N)N)NC(=O)CNC(=O)CNC(=O)[C@H](Cc2ccccc2)NC(=O)[C@@H](NC(=O)[C@H](CO)NC(=O)[C@H](CO)NC(=O)[C@H](CCCN=C(N)N)NC(=O)[C@H](CCCN=C(N)N)NC(=O)[C@H](CC(C)C)NC(=O)[C@@H](N)CO)CSSC[C@@H](C(N)=O)NC(=O)[C@H](CCC(N)=O)NC(=O)[C@H](C)NC(=O)CNC1=O` (HELM PEPTIDE1{S.L.R.R.S.S.C.F.G.G.R.I.D.R.I.G.A.Q.C.[am]}$PEPTIDE1,PEPTIDE1,7:R3-19:R3$$$V2.0), the results for the IC50 in assay [1] and in assay [2] were 52 nM and 0.16 nM, respectively. Also, the Ratio in assay [3] came out at 312.

As for `CC[C@H](C)[C@H](NC(=O)[C@H](CCCN=C(N)N)NC(=O)[C@H](CC(=O)O)NC(=O)[C@@H](NC(=O)[C@H](CCCN=C(N)N)NC(=O)CNC(=O)CNC(=O)[C@H](Cc1ccccc1)NC(=O)[C@@H](N)CS)[C@@H](C)CC)C(=O)NCC(N)=O` (H-CFGGRIDRIG-NH2), the IC50 in assay [1] was more than 100 nM; in assay [2] it was 0.28 nM. Besides, the Ratio in assay [3] was more than 357.

The IC50 is the concentration that gives 50% inhibition. Low values mean greater potency in that assay, high ones weaker potency in that assay.
